Results on 7 compounds are retold here after patent publication US10730886B2, “Compound having effect of inhibiting platelet aggregation and salt thereof, and composition for preventing or treating thrombotic diseases, containing same” (SHIN POONG PHARMACEUTICAL CO., LTD., priority 2015, dated 2020).

SMILES strings stand for the structures. Where two headings read alike, the source gives them in different places.

What all share (assay type): cell-based
The test system of data set [1] is Human Platelet Rich Plasma (PRP). Put plainly: Shear stress-induced platelet aggregation inhibition in human platelet rich plasma (PRP), cone-plate viscometer. The settings on record: for inhibition at 25 µM: Homo sapiens, Platelet. The method, then: 1-1. Measurement of Platelet Aggregation Inhibitory Effect Using Human Platelet Rich Plasma (PRP)
Blood was collected from the veins of healthy male volunteers who had not taken any medication for more than 2 weeks. All related studies were conducted under the approval of the Seoul National University Institutional Review Board (IRB No. 1305/001-016). During the whole process of study the use of glass containers or glass pipettes was avoided, and the experiments were performed at room temperature. To separate platelet rich plasma (PRP), the blood was collected with 3.2% sodium citrate as an anticoagulant. The whole blood was centrifuged at 150 g for 15 minutes to obtain the supernatant (PRP), and the residue was centrifuged at 2,000 g for 20 minutes to obtain platelet poor plasma (PPP). The number of platelets of the PRP thus obtained was counted with an optical microscope using a hemacytometer. PRP was diluted with PPP so as to include 3×10^8 platelets per 1 ml, and then used in the experiments. PRP was put on a cone-plate viscometer (RotoVisco 1, Thermo Fischer Scientific, USA), and shear stress was applied to the PRP at 37° C. for 3 minutes at a shear rate of 10,800 s^−1. In order to evaluate candidate substances, prior to the induction of platelet aggregation, 598.8 μl of PRP was treated with 1.2 μl of 25 μM candidate substance and incubated at 37° C. for 3 minutes using a thermomixer. After applying the shear stress, 20 μl of PRP was fixed in 280 μl of a suspension buffer containing 0.5% glutaraldehyde (134 mM NaCl, 2.9 mM KCl, 1.0 mM MgCl2.6H2O, 10.0 mM HEPES, 5.0 mM dextrose, 12.0 mM NaHCO3, 0.34 mM Na2HPO4, 0.3% BSA, pH 7.4). Then, the number of single platelets in the suspension was counted using a hemacytometer. The degree of inhibition by the candidate substance was calculated according to the following formula (1). The degree of inhibition was determined by the method described below. No shear stress-applied group served as a control, and only shear stress-applied group served as positive control. Degree of inhibition (%)=[(1−A/B)×100]/[(1−A/C)×100] Formula 1
A: Number of single platelets in the shear stress-applied sample after treatment with candidate substance
B: Number of single platelets in the control group with no shear stress applied
C: Number of single platelets in the positive control group with only shear stress applied

Data set [2] has as its system Human Washed Platelets (WP). Put plainly: Shear stress-induced platelet aggregation inhibition in human washed platelets (WP). The settings on record: for inhibited shear stress-induced platelet aggregation in WP: 10, 25, 50 μM; for inhibition at 10 µM / inhibition at 25 µM / inhibition at 50 µM: Platelet, human WP, read-out: Degree of inhibition (%, Mean ± SEM). The method, then: 1-2. Measurement of Platelet Aggregation Inhibitory Effect Using Human Washed Platelets (WP)
To separate human washed platelets (WP), blood was collected from the veins of healthy males using acid-citrate-dextrose (ACD) as an anticoagulant. At the time of blood collection, platelet activation was inhibited by treatment with 1 μM of prostaglandin E1 (PGE1). The collected blood was centrifuged at 150 g for 15 minutes to obtain PRP from the supernatant, which was centrifuged at 500 g for 10 minutes to obtain platelets. The platelets were suspended in and washed with a washing buffer (134 mM NaCl, 2.9 mM KCl, 1.0 mM MgCl2.6H2O, 10.0 mM HEPES, 5.0 mM dextrose, 12.0 mM NaHCO3, 0.34 mM Na2HPO4, 10% ACD, 0.3% bovine serum albumin, 1 μM PGE1, pH 7.4), and then re-centrifuged at 400 g for 10 minutes. The platelets thus obtained were suspended in the suspension buffer. The number of platelets in WP were counted using a hemacytometer. The platelets were diluted with the suspension buffer so as to include 3×10^8 platelets per 1 ml, and CaCl2 was added to give a final concentration of 2 mM and then used in the experiments. vWF was added to WP to give a final concentration of 10 μg/ml. WP was put on a cone-plate viscometer, and shear stress was applied to the WP at 37° C. for 3 minutes at a shear rate of 10,800 s^−1. In order to evaluate efficacy of candidate substances, prior to the induction of platelet aggregation, WP was treated with 10, 25, and 50 μM of candidate substances and incubated at 37° C. for 3 minutes using a thermomixer. After applying the shear stress, 20 μl of WP was fixed in 280 μl of the suspension buffer containing 0.5% glutaraldehyde. Then, the number of single platelets in the suspension was counted using a hemacytometer. The degree of inhibition by the candidate substance was calculated according to formula (1). No shear stress-applied group served as control, and only shear stress-applied group served as a positive control.

Data set [3] relates to human vascular endothelial cells (EA.hy926). Put plainly: Cytotoxicity in EA.hy926 cell line (MTT assay). The settings on record: 24 hours. The method, then: 5-1. Evaluation of Cytotoxicity of Candidate Substances Using EA.hy926 Cell Line
Experiments were conducted to determine the cytotoxicity of candidate substances in human vascular endothelial cells (EA.hy926). EA.hy926 was passaged in DMEM (Dulbecco's […]) supplemented with 10% fetal bovine serum (FBS) at 5% CO2/37° C. The cells were cultured in a 96 well plate at 1×10^4 cells/well for 48 hours, washed twice with DMEM and then cultured for 24 hours. Candidate substances were prepared at final concentrations of 25 and 100 μM, applied to the wells at 200 μl per well and cultured for 24 hours. MTT assay was used to measure the absorbance at 570 nm after colorization in violet.
On the technique in general: Tetrazolium dyes change colour on reduction, which living cells bring about.

The mark [4] stands for this setting: 0.05 h, human PRP, 25 μM, shear rate 10,800 s^-1, 3 min, read-out: Degree of inhibition (%, Mean ± SEM).
The mark [5] stands for this setting: Table 1 summary bins, concentration and matrix not given, read-out: Inhibitory effect of shear stress-induced platelet aggregation.
Where [6] appears, read: human PRP, 25 μM, shear rate 10,800 s^-1, 3 min.

With `O=C(c1ccc(O)c(O)c1)N1CCc2sccc2C1` [Example 1, (6,7-Dihydrothieno[3,2-c]pyridin-5(4H)-yl)(3,4-dihydroxyphenyl)methanone], the inhibition at 25 µM in data set [1] (setting [4]) lay within 20 to 30%. In addition, the inhibition at 25 µM in data set [1] (setting [5]) was in the range of 20 to 30%. Also, the “Degree of inhibition (%, Mean ± SEM)” value in data set [1] (setting [6]) amounted to 23 ± 2%. Also, in data set [2], the “inhibited shear stress-induced platelet aggregation in WP” value is listed as “in a dose-dependent manner”, the inhibition at 10 µM is 4 ± 3.5%, the inhibition at 25 µM was determined as 23 ± 1.2% and the inhibition at 50 µM turned out to be 27 ± 1.7%. In addition, the “Cell viability (%)” value in data set [3] (EA.hy926, 25 μM) is 92.2 ± 2.8%. The “Cell viability (%)” value in data set [3] (EA.hy926, 100 μM) came to 94.2 ± 1.9%.
On to `COc1cc(C(=O)N2CCc3sccc3C2)ccc1O` [Example 12, (6,7-Dihydrothieno[3,2-c]pyridin-5(4H)-yl)(4-hydroxy-3-methoxyphenyl)methanone], for which the inhibition at 25 µM in data set [1] (setting [4]) was 20 to 30%. Further, in data set [1] (setting [5]), the inhibition at 25 µM is 20 to 30%. For the same compound, the “Degree of inhibition (%, Mean ± SEM)” value in data set [1] (setting [6]) worked out at 25 ± 6%. Also, in data set [2], the “inhibited shear stress-induced platelet aggregation in WP” value is reported as “in a dose-dependent manner”, the inhibition at 10 µM is 10 ± 2.1%, the inhibition at 25 µM came out at 30 ± 0.9% and the inhibition at 50 µM was found to be 33 ± 2.1%. In addition, in data set [3] (EA.hy926, 25 μM), the “Cell viability (%)” value turned out to be 95.1 ± 1.9%. Further, the “Cell viability (%)” value in data set [3] (EA.hy926, 100 μM) was 97.2 ± 2.8%.
For the compound `CCc1occc(=O)c1OC(=O)c1ccc(O)c(OC)c1` [Example 13, 2-Ethyl-4-oxo-4H-pyran-3-yl 4-hydroxy-3-methoxybenzoate], in data set [1] (setting [4]), the inhibition at 25 µM was 20 to 30%. In addition, the inhibition at 25 µM in data set [1] (setting [5]) was in the range of 20 to 30%. The “Degree of inhibition (%, Mean ± SEM)” value in data set [1] (setting [6]) was found to be 26 ± 6%. In data set [2], the “inhibited shear stress-induced platelet aggregation in WP” value is “in a dose-dependent manner”, the inhibition at 10 µM is 12 ± 3.8%, the inhibition at 25 µM was determined as 29 ± 4.1% and the inhibition at 50 µM was 34 ± 2.7%. Also, the “Cell viability (%)” value in data set [3] (EA.hy926, 25 μM) stood at 100.1 ± 1.9%. In addition, the “Cell viability (%)” value in data set [3] (EA.hy926, 100 μM) stood at 94.2 ± 2.0%.
As to `COc1cc(C(=O)Oc2c(C)occc2=O)ccc1O` [Example 14, 2-Methyl-4-oxo-4H-pyran-3-yl 4-hydroxy-3-methoxybenzoate], the inhibition at 25 µM in data set [1] (setting [4]) is not below 30%. For the same compound, the inhibition at 25 µM in data set [1] (setting [5]) was not below 30%. In addition, in data set [2], the “inhibited shear stress-induced platelet aggregation in WP” value is reported as “in a dose-dependent manner”, the inhibition at 10 µM came out at 8 ± 1.5%, the inhibition at 25 µM came to 27 ± 2.3% and the inhibition at 50 µM came out at 39 ± 0.6%. Further, the “Cell viability (%)” value in data set [3] (EA.hy926, 25 μM) was determined as 99.6 ± 1.7%. The “Cell viability (%)” value in data set [3] (EA.hy926, 100 μM) is 99.5 ± 1.6%.
Take `COc1ccc(NC(=O)c2ccc(O)c(OC)c2)c([N+](=O)[O-])c1` [Example 15, 4-Hydroxy-3-methoxy-N-(4-methoxy-2-nitrophenyl)benzamide]: the inhibition at 25 µM in data set [1] (setting [4]) was 20 to 30%. Moreover, the inhibition at 25 µM in data set [1] (setting [5]) was in the range of 20 to 30%. The “Degree of inhibition (%, Mean ± SEM)” value in data set [1] (setting [6]) amounted to 24 ± 8%. In addition, in data set [2], the “inhibited shear stress-induced platelet aggregation in WP” value was “in a dose-dependent manner”, the inhibition at 10 µM was determined as 14 ± 2.5%, the inhibition at 25 µM worked out at 26 ± 4% and the inhibition at 50 µM is 36 ± 3.2%. Moreover, in data set [3] (EA.hy926, 25 μM), the “Cell viability (%)” value came out at 100.8 ± 2.5%. In addition, in data set [3] (EA.hy926, 100 μM), the “Cell viability (%)” value stood at 94.9 ± 3.3%.
Take `O=C(c1cc(O)ccc1O)N1CCc2sccc2C1` [Example 20, (6,7-Dihydrothieno[3,2-c]pyridin-5(4H)-yl)(2,5-dihydroxyphenyl)methanone]: the inhibition at 25 µM in data set [1] (setting [4]) was not below 30%; in data set [1] (setting [5]), not below 30%; in data set [2] it was 42 ± 4.2%. Besides, in data set [2], the “inhibited shear stress-induced platelet aggregation in WP” value is “in a dose-dependent manner”. The inhibition at 10 µM in data set [2] came to 18 ± 1.5%. Besides, in data set [2], the inhibition at 50 µM was found to be 46 ± 2.1%. Besides, the “Cell viability (%)” value is 99.7 ± 3.2% in data set [3] (EA.hy926, 25 μM) and 97.7 ± 2.2% in data set [3] (EA.hy926, 100 μM).
For the compound `O=C(c1cc(O)ccc1O)N1CCC(c2noc3ccc(F)cc23)CC1` [Example 23, (2,5-Dihydroxyphenyl)(4-(5-fluorobenzo[d]isoxazol-3-yl)piperidin-1-yl)methanone], the inhibition at 25 µM in data set [1] (setting [4]) and in data set [1] (setting [5]) was 20 to 30% each time. In data set [1] (setting [6]), the “Degree of inhibition (%, Mean ± SEM)” value was 28 ± 3%. Also, the “Cell viability (%)” value turned out to be 104.3 ± 1.8% in data set [3] (EA.hy926, 25 μM) and 99.9 ± 1.9% in data set [3] (EA.hy926, 100 μM).
